Experiments:
[1] = system: Human promyelocytic leukemia HL-60 cells; test: Cell differentiation of HL-60 cells by nitroblue tetrazolium (NBT) reduction; format: cell-based; details: 50% differentiation or effective concentration, read-out: NBT ED50
Experimental: Human promyelocytic leukemia HL-60 cells were cultured in RPMI-1640 medium supplemented by 10% heat-inactivated calf serum and 100 U/ml of penicillin plus 100 μg/ml of streptomycin. The flasks containing cells and medium were incubated in an incubator with 5% CO2 at 37° C. Log phase cells were seeded into the medium at a concentration of 1.2×10^5to 1.4×10^5 cells per ml and cultured in flasks containing 5 ml of medium. Each group consisted of three flasks. Different concentrations of chalcone-retinoids were added. At intervals following the addition of chalcone-retinoids to the cultures, a small portion of cells was removed and live cells were counted under a light microscope using a dye-exclusionmethod with trypan blue. Cell differentiation was judged in terms of morphology and nitroblue tetrazolium (NBT) reduction.
For a determination of NBT reducing activity, a portion of the chalcone-retinoid-treated cells was removed at intervals following treatment and centrifuged. After centrifugation, 0.5 ml of 0.1% NBT (containing 100 ng TPA) was added to each tube. The contents of the test tubes were then incubated for 1 hour at 37° C. Cell smears were prepared from the cell sediment and stained using the Wright-Giemsa technique. For each smear prepared, 200 cells were isolated for examination under a light microscope with an oil immersion lens. Cells stained with blue-black granules were considered NBT-positive cells. The 50% differentiation or effective concentration (ED50 or EC50) is shown in terms of molar (M) concentration of the […] tested.

[2] = system: cancer cells; test: MTT assay for inhibitory effect on cancer cells (monolayer culture); format: cell-based; details: 120 h, 5 day culture, 1200 tumor cells per well, cell line not named, read-out: MTT ED50
Experimental: For a monolayer culture to test for the inhibitory effect of chalcone retinoids on cancer cells, 0.5 ml of trypsin solution (0.3 gm/ml) was added to the flasks for digestion. Microtiter plates (96 well) were used for the cell culture and 200 μl of cell suspension (1200 tumor cells) were placed in each well and incubated at 37° C. for 24 hours. Following the addition of the test compound, the control and treated flasks were placed in a CO2 incubator for 5 day culture. For the MTT assay, 200 μl of MTT solution (5 mg in 10 ml of phosphate buffer) plus the medium were added and incubated for another 4 hours. Following incubation, the supernatant was discarded and 200 μl of DMSO was added to each well. With a mild agitation the OD values were determined by the MR 700 Elisa at 570 nm (reference wavelength was 450 nm). The ED50 of the compound and tumor cell survival rate [formula] as percent inhibition were calculated.

[3] = system: human acute myeloid leukemia (AML), neuroblastoma, teratocarcinoma, melanoma, and rat rhabdomyosarcoma cells; details: Smith et al., J. Clin. Oncol. 10 (5):839-864 (1992); cited from earlier work
[4] = Preuss-Ueberschar et al., Drug Res. 34:1305-1313 (1984); cited from earlier work
[5] = system: melanoma cell; details: Jing et al. (1992); cited from earlier work

| Compound | EC50 [1] [µM] | IC50 [2] [µM] | further results |
| --- | --- | --- | --- |
| CC(C)(C)c1cc(C(=O)Nc2ccc(C(=O)Nc3ccc(O)cc3)cc2)cc(C(C)(C)C)c1O [I-A, N-4-[4-(hydroxyphenylaminocarbonyl)phenyl]-3,5-di-t-butyl-4-hydroxybenzamide] | > 1 | 4 | – |
| CC(=O)Nc1ccc(OC(=O)c2ccc(NC(=O)c3cc(C(C)(C)C)c(O)c(C(C)(C)C)c3)cc2)cc1 [I-B, N-4-[4-(acetaminophenoxycarbonyl)phenyl]-3,5-di-t-butyl-4-hydroxybenzamide] | > 10 | 11 | – |
| COc1c(C(C)(C)C)cc(C(=O)Nc2ccc(C(=O)Oc3ccc(NC(C)=O)cc3)cc2)cc1C(C)(C)C [I-J, N-4-[4-(acetaminophenoxycarbonyl)phenyl]-3,5-di-t-butyl-4-methoxybenzamide] | 1.2 | 0.92 | – |
| COc1c(C(C)(C)C)cc(C(=O)C=Cc2ccc(C(=O)Oc3ccc(NC(C)=O)cc3)cc2)cc1C(C)(C)C [I-N, 1-(3,5-di-t-butyl-4-methoxyphenyl)-3-[4-(4-acetaminophenoxycarbonyl)-phenyl]-2-propen-1-one] | > 1 | 2 | – |
| CC(=O)Nc1ccc(OC(=O)c2ccc(OC(=O)c3cc(C(C)(C)C)c(O)c(C(C)(C)C)c3)cc2)cc1 [I-Q, 4'-[(4-acetamino)phenoxycarbonylphenyl] 4-hydroxy-3,5-di-t-butyl-benzoate] | 8 | 6 | – |
| CCOC(=O)c1ccc(NC(=O)c2ccc(OC(=O)c3cc(C(C)(C)C)c(O)c(C(C)(C)C)c3)cc2)cc1 [I-R, 4-(4-ethoxycarbonyl-phenylaminocarbonyl)phenyl 3,5-di-t-butyl-4-hydroxybenzoate] | > 10 | > 10 | – |
| CC(C)(C)c1cc(C(=O)Oc2ccc(C(=O)Nc3ccc(C(=O)O)cc3)cc2)cc(C(C)(C)C)c1O [I-S, 4-(4-carboxy-phenylaminocarbonyl)phenyl 3,5-di-t-butyl-4-hydroxybenzoate] | > 10 | 1.6 | – |
| CC1=C(/C=C/C(C)=C/C=C/C(C)=C/C(=O)O)C(C)(C)CCC1 [all-trans-retinoic acid (RA), all-trans-retinoic acid] | – | – | induces cell differentiation [3]: induces cell differentiation |
| O=c1ccc2ccccc2o1 [coumarin] | – | – | teratogenicity [4]: not teratogenic |
| O=c1c(-c2ccc(O)cc2)coc2cc(O)ccc12 [diadzein] | – | – | inhibition of melanoma cell growth [5]: inhibits melanoma cell growth |

Reference: patent US5703130A, “Chalcone retinoids and methods of use of same” (priority 1996, dated 1997)
